Laboratory results as given in patent US12269797B2, “Bifunctional linker for bisconjugation, method of synthesis, and method of use” (priority 2020, dated 2025).

Assay: Solubility of the bifunctional linker in solvents
Format: physicochemical

C#CCOC(=O)c1ccc(C=O)c(C=O)c1 [Ib, Prop-2-yn-1-yl 3,4-diformylbenzoate]
solubility (in DMSO or methanol): soluble
solubility (in hexanes or water): limited solubility
